Assay results published in US20030225044A1, “Method to increase serum levels of vitamins in animals including humans” (priority 2002, published 2003).

How the values were obtained:
[1] = Serum Vitamin E after nasal administration or drench (Example VI); assay type: in vivo, beef steers
Experimental: (§1) These five treatments were:
(§2) Treatments were applied and cattle were bled via jugular venipuncture at 0, 6, and 24 hours post-dosing.

[2] = Serum Vitamin A after nasal administration or drench (Example V); assay type: in vivo, beef steers
Experimental: as §1, §2

For Vitamin E, the “Average Serum Level - Vitamin E” value ([1]; Treatment 2: positive control, 15 ml drench, 1200 IU Vitamin E in 15 ml water, 6 Hours) was 1.8 micrograms/ml, the “Average Serum Level - Vitamin E” value ([1]; Treatment 2: positive control, 15 ml drench, 1200 IU Vitamin E in 15 ml water, 24 Hours) was 2.0 micrograms/ml and the “Average Serum Level - Vitamin E” value ([1]; Treatment 2: positive control, 15 ml drench, 1200 IU Vitamin E in 15 ml water, time 0) was 1.8 micrograms/ml. The “Average Serum Level - Vitamin E” value ([1]; Treatment 3: solid form vitamins in 2 ml ethanol, 1,000,000 IU A, 100,000 IU D, 1000 IU E, 1 ml per nostril, 6 Hours) was 2.7 micrograms/ml, the “Average Serum Level - Vitamin E” value ([1]; Treatment 3: solid form vitamins in 2 ml ethanol, 1,000,000 IU A, 100,000 IU D, 1000 IU E, 1 ml per nostril, 24 Hours) was 2.8 micrograms/ml and the “Average Serum Level - Vitamin E” value ([1]; Treatment 3: solid form vitamins in 2 ml ethanol, 1,000,000 IU A, 100,000 IU D, 1000 IU E, 1 ml per nostril, time 0) was 2.7 micrograms/ml. For the same substance, the “Average Serum Level - Vitamin E” value ([1]; Treatment 4: vitamin E, A, D oils, Tween 80, nicotinic acid, Carbopol 934P, Pemulen TR2, NaOH, water, 1000 IU E, 1 ml per nostril, 6 Hours) was 2.5 micrograms/ml, the “Average Serum Level - Vitamin E” value ([1]; Treatment 4: vitamin E, A, D oils, Tween 80, nicotinic acid, Carbopol 934P, Pemulen TR2, NaOH, water, 1000 IU E, 1 ml per nostril, 24 Hours) was 2.7 micrograms/ml and the “Average Serum Level - Vitamin E” value ([1]; Treatment 4: vitamin E, A, D oils, Tween 80, nicotinic acid, Carbopol 934P, Pemulen TR2, NaOH, water, 1000 IU E, 1 ml per nostril, time 0) was 2.7 micrograms/ml. The “Average Serum Level - Vitamin E” value ([1]; Treatment 5: vitamin E, A, D oils, Tween 80, Pemulen TR2, NaOH, water, 1000 IU E, 1 ml per nostril, 6 Hours) was 2.0 micrograms/ml, the “Average Serum Level - Vitamin E” value ([1]; Treatment 5: vitamin E, A, D oils, Tween 80, Pemulen TR2, NaOH, water, 1000 IU E, 1 ml per nostril, 24 Hours) was 2.2 micrograms/ml and the “Average Serum Level - Vitamin E” value ([1]; Treatment 5: vitamin E, A, D oils, Tween 80, Pemulen TR2, NaOH, water, 1000 IU E, 1 ml per nostril, time 0) was 2.1 micrograms/ml. For the same substance, the “course of serum level of Vitamin E” value ([1]; Treatment #3, nasal (FIG. 9, curve 920)) was “increased from 6 hours to 24 hours post-dosing” and the “course of serum level of Vitamin E” value ([1]; Treatment #5, nasal (FIG. 9, curve 910)) was “increased from 6 hours to 24 hours post-dosing”.
For Vitamin A, the “Average Serum Levels-Vitamin A” value ([2]; Treatment 2: positive control, 15 ml drench, 1,000,000 IU Vitamin A in 15 ml water, 6 Hours) was 277 ng/mL, the “Average Serum Levels-Vitamin A” value ([2]; Treatment 2: positive control, 15 ml drench, 1,000,000 IU Vitamin A in 15 ml water, 24 Hours) was 247 ng/mL and the “Average Serum Levels-Vitamin A” value ([2]; Treatment 2: positive control, 15 ml drench, 1,000,000 IU Vitamin A in 15 ml water, time 0) was 230 ng/mL. The “Average Serum Levels-Vitamin A” value ([2]; Treatment 3: solid form vitamins in 2 ml ethanol, 1,000,000 IU A, 100,000 IU D, 1000 IU B, 1 ml per nostril, 6 Hours) was 344 ng/mL, the “Average Serum Levels-Vitamin A” value ([2]; Treatment 3: solid form vitamins in 2 ml ethanol, 1,000,000 IU A, 100,000 IU D, 1000 IU B, 1 ml per nostril, 24 Hours) was 326 ng/mL and the “Average Serum Levels-Vitamin A” value ([2]; Treatment 3: solid form vitamins in 2 ml ethanol, 1,000,000 IU A, 100,000 IU D, 1000 IU B, 1 ml per nostril, time 0) was 302 ng/mL. The “Average Serum Levels-Vitamin A” value ([2]; Treatment 4: vitamin E, A, D oils, Tween 80, nicotinic acid, Carbopol 934P, Pemulen TR2, NaOH, water, 1,000,000 IU A, 1 ml per nostril, 6 Hours) was 314 ng/mL, the “Average Serum Levels-Vitamin A” value ([2]; Treatment 4: vitamin E, A, D oils, Tween 80, nicotinic acid, Carbopol 934P, Pemulen TR2, NaOH, water, 1,000,000 IU A, 1 ml per nostril, 24 Hours) was 321 ng/mL and the “Average Serum Levels-Vitamin A” value ([2]; Treatment 4: vitamin E, A, D oils, Tween 80, nicotinic acid, Carbopol 934P, Pemulen TR2, NaOH, water, 1,000,000 IU A, 1 ml per nostril, time 0) was 321 ng/mL. The “Average Serum Levels-Vitamin A” value ([2]; Treatment 5: vitamin E, A, D oils, Tween 80, Carbopol TR2, NaOH, water, 1,000,000 IU A, 1 ml per nostril, 6 Hours) was 349 ng/mL, the “Average Serum Levels-Vitamin A” value ([2]; Treatment 5: vitamin E, A, D oils, Tween 80, Carbopol TR2, NaOH, water, 1,000,000 IU A, 1 ml per nostril, 24 Hours) was 353 ng/mL and the “Average Serum Levels-Vitamin A” value ([2]; Treatment 5: vitamin E, A, D oils, Tween 80, Carbopol TR2, NaOH, water, 1,000,000 IU A, 1 ml per nostril, time 0) was 343 ng/mL. For the same substance, the “course of serum level of Vitamin A” value ([2]; Treatment #3: nasal administration of Vitamin A/ethanol solution (FIG. 8, curve 810)) was “decreased from 6 to 24 hours post-dosing after an initial increase in the first 6 hours”, the “course of serum level of Vitamin A” value ([2]; Treatment #4, nasal (FIG. 8, curve 830)) was “increased continuously from 6 hours to 24 hours post-dosing” and the “course of serum level of Vitamin A” value ([2]; Treatment #5, nasal (FIG. 8, curve 820)) was “increased from 0 hours to 24 hours post-dosing”.
